Test results published in US8530465B2, “1, 2-disubstituted amido-anthraquinone derivatives, preparation method and application thereof” (National Defense Medical Center, priority 2010, dated 2013).

Key:
hTERT = assay: Secreted alkaline phosphatase (SEAP) assay, PhTERT-SEAP (H1299); assay type: cell-based; settings: Homo sapiens, 24 hours; for activity at 1 µM: NCI-H1299, Conc. 1 μM, read-out: Relative SEAP activity (%); for activity at 10 µM: NCI-H1299, Conc. 10 μM; for activity at 10 µM / activity at 100 µM: read-out: Relative SEAP activity (%) (converted); for activity at 100 µM: NCI-H1299, Conc. 100 μM
Protocol: H1299 were grown in RPMI 1640 media supplemented with 10% fetal bovine serum, 100 units/mL penicillin and […] streptomycin in a humidified atmosphere with 5% CO2 at 37° C. Culture media were changed every three days. To establish stable cell lines that the expression of hTERT could be monitored by a reporter system, a about 3.3 kbp DNA fragment ranging from −3338 to +1 bp of the hTERT gene (hTERT promoter, PhTERT) was subcloned upstream to a secreted alkaline phosphatase gene (SEAP) and transfected into H1299 by electroporation. The stable clones were selected using G418. The stable clones derived from H1299 were cultured using conditions that are similar to their parental cells.
Secreted alkaline phosphatase was used as the reporter system to monitor the transcriptional activity of hTERT. Here, about 10^4 cells each were grown in 96-well plates and incubated at 37° C. for 24 hours and changed with fresh media. Varying amounts of drugs were added and cells were incubated for another 24 hours. Culture media were collected and heated at 65° C. for 10 min to inactivate heat-labile phosphatases. An equal amount of SEAP buffer (2 M diethanolamine, 1 mM MgCl2, and 20 mM L-homoarginine) was added to the media and p-nitrophenyl phosphate was added to a final concentration of 12 mM. Absorptions at 405 nm were taken, and the rate of absorption increase is determined (the increasing rate of absorbance at 405 nm was used to represent the activity of SEAP).

[1] = MTT assay, PhTERT-SEAP (H1299); assay type: cell-based, human; settings: human, H1299 cells carrying the PhTERT-SEAP reporter, PhTERT-SEAP (H1299); for viability at 1 μM: Conc. 1 μM, read-out: Relative MTT viability (%); for viability at 10 μM: Conc. 10 μM; for viability at 10 μM / viability at 100 μM: read-out: Relative MTT viability (%) (converted); for viability at 100 μM: Conc. 100 μM
Protocol: Further, cells were subjected to MTT assay to compare the relative toxicity or effect of each compound on cell proliferation and activity.
The above-described cells are cultured in a 96-well plate, to which was added with 25 μl MTT solution, and cultured in a 37° C. carbon dioxide incubator for 4 hours. Then, 100 μl Lysis buffer is added and incubated in a 37° C. carbon dioxide incubator overnight. An ELISA reader (Bio-Rad Model 450) is used to read optical density (O.D.) at 550 nm.

SMILES	activity at 1 µM (hTERT) [%]	activity at 10 µM (hTERT) [%]	activity at 100 µM (hTERT) [%]	viability at 1 μM [1] [%]	viability at 10 μM [1] [%]	melting point [°C]	viability at 100 μM [1] [%]
O=C1c2c(O)ccc(O)c2C(=O)c2c(NCCNCCO)ccc(NCCNCCO)c21 [mitoxantrone, reference compound]	20.8 ± 1.56	9.92	7.19				
O=C(CCl)Nc1ccc2c(c1NC(=O)c1ccccc1F)C(=O)c1ccccc1C2=O [CC-13, 1-(2-fluorobenzamido)-2-(chloroacetamido)-anthraquinone]	105 ± 12.7	5.89	2.11	78.8 ± 7.83	2.77	245 to 246	
Cc1ccc(C(=O)Nc2c(NC(=O)CN3CCN(c4ccccc4F)CC3)ccc3c2C(=O)c2ccccc2C3=O)cc1 [CC-46, 1-(4-methylbenzamido)-2-[2-[4-(2-fluorophenyl)piperazino]acetylamino]-anthraquinone]	85 ± 10.8	76.2	20.1	79.8 ± 9.65	68.7	228 to 229	40.8
O=C(CCl)Nc1ccc2c(c1NC(=O)c1ccccc1)C(=O)c1ccccc1C2=O [CC-09, 1-(benzamido)-2-(chloroacetamido)-anthraquinone]	96.3 ± 3.31	94.7	16	101 ± 4.37	83.8	203 to 204	5.38
O=C(CCl)Nc1ccc2c(c1NC(=O)c1cc(C(F)(F)F)ccc1C(F)(F)F)C(=O)c1ccccc1C2=O [CC-22, 1-1-[2,5-bis-(trifluoromethyl)benzamido]-2-(chloroacetamido)-anthraquinone]	90.3 ± 1.77	5.11	4.11	86.7 ± 2.13	8.81	187 to 188	
Cc1cccc(C(=O)Nc2c(NC(=O)CCl)ccc3c2C(=O)c2ccccc2C3=O)c1 [CC-11, 1-(3-methylbenzamido)-2-(chloroacetamido)-anthraquinone]	116 ± 14.8	-1.91	-3.1	72.8 ± 3.83	0.7	202 to 203	
Cc1ccc(C(=O)Nc2c(NC(=O)CN3CCC4(CC3)OCCO4)ccc3c2C(=O)c2ccccc2C3=O)cc1 [CC-40, 1-(4-methylbenzamido)-2-[2-(1,4-dioxa-8-azaspiro[4.5]dec-8-yl)acetylamino]-anthraquinone]	78.9 ± 3.67	51.6	6.67	74.3 ± 6.15	55.5	197 to 198	16.8
Cc1ccc(C(=O)Nc2c(NC(=O)CN3CCOCC3)ccc3c2C(=O)c2ccccc2C3=O)cc1 [CC-41, 1-(4-methylbenzamido)-2-[(2-morpholinoacetyl)amino]-anthraquinone]	98.37 ± 0.9	54.2	3.75	81.5 ± 6.24	56.7	225 to 226	15.5
Cc1ccc(C(=O)Nc2c(NC(=O)CN(C)CCc3ccccn3)ccc3c2C(=O)c2ccccc2C3=O)cc1 [CC-37, 4-methyl-N-(2-(2-(methyl(2-(pyridin-2-yl)ethyl)amino)acetamido)-9,10-dioxo-9,10-dihydroanthracen-1-yl)benzamide]	90.6 ± 1.48	11.9	1.47	94.9 ± 6.49	46.2	166 to 167	22
O=C(CCl)Nc1ccc2c(c1NC(=O)c1cccc(C(F)(F)F)c1)C(=O)c1ccccc1C2=O [CC-20, 1-[3-(trifluoromethyl)benzamido]-2-(chloroacetamido)-anthraquinone]	99.8 ± 4.15	4.53	0.32	94.7 ± 3.59	5.15	190 to 191	3.37
O=C(CCl)Nc1ccc2c(c1NC(=O)c1ccno1)C(=O)c1ccccc1C2=O [CC-29, 1-[(5-isoxazolecarbonyl)amino]-2-(chloroacetamido)-anthraquinone]	92.5 ± 0.99	4.91	1.35	105 ± 7.19	3.47	212 to 213	0.11
O=C(CCl)Nc1ccc2c(c1NC(=O)CCCl)C(=O)c1ccccc1C2=O [CC-07, 1-[(3-chloropropanyl)amido]-2-(chloroacetamido)-anthraquinone]	114 ± 6.14	92.9	15.2	103 ± 7.01	79.9	182 to 183	19
Cc1ccc(C(=O)Nc2c(NC(=O)CN3CCSCC3)ccc3c2C(=O)c2ccccc2C3=O)cc1 [CC-42, 1-(4-methylbenzamido)-2-[2-(1,4-thiazinan-4-yl)acetylamino]-anthraquinone]	88 ± 1.2	72.6	12.2	85.8 ± 7.69	70	210 to 211	20
O=C(CCl)Nc1ccc2c(c1NC(=O)c1ccco1)C(=O)c1ccccc1C2=O [CC-27, 1-[(2-furoyl)amino]-2-(chloroacetamido)-anthraquinone]	84.7 ± 23.3	2.94	2.62	80.4 ± 3.56		211 to 212	
O=C(CCl)Nc1ccc2c(c1NC(=O)C1CC1)C(=O)c1ccccc1C2=O [CC-25, 1-[(cyclopropanecarbonyl)amino]-2-(chloroacetamido)-anthraquinone]	83.8 ± 2.67	3.46	1.38	88.7 ± 3.92		191 to 192	
Cc1ccc(C(=O)Nc2c(NC(=O)CN(C)C)ccc3c2C(=O)c2ccccc2C3=O)cc1 [CC-35, 1-(4-methylbenzamido)-2-[2-(dimethylamino)acetylamino]-anthraquinone]	99.5 ± 3.37	78.5	9.61	107 ± 2.85	88.4	190 to 191	
COc1ccccc1N1CCN(CC(=O)Nc2ccc3c(c2NC(=O)c2ccc(C)cc2)C(=O)c2ccccc2C3=O)CC1 [CC-48, 1-(4-methylbenzamido)-2-[2-[4-(2-methoxyphenyl)piperazino]acetylamino]-anthraquinone]	83.3 ± 2.81	68.3	12.2	76.4 ± 3.95	78.3	215 to 216	22.7
O=C(CCl)Nc1ccc2c(c1NC(=O)c1cccs1)C(=O)c1ccccc1C2=O [CC-28, 1-[(2-thiophenecarbonyl)amino]-2-(chloroacetamido)-anthraquinone]	5.81 ± 23.3	3.03	2.2			190 to 191	
O=C(CCl)Nc1ccc2c(c1NC(=O)Cc1ccc(F)cc1)C(=O)c1ccccc1C2=O [CC-24, 1-[2-(4-fluorophenyl)acetylamino]-2-(chloroacetamido)-anthraquinone]	93.1 ± 5.96	8.4	1.75	88.9 ± 5.07	7.31	213 to 214	6.17
Cc1ccc(C(=O)Nc2c(NC(=O)CN3CCCCC3)ccc3c2C(=O)c2ccccc2C3=O)cc1 [CC-39, N-(9,10-dioxo-2-(2-(piperidin-1-yl)acetamido)-9,10-dihydroanthracen-1-yl)-4-methylbenzamide]	85.4 ± 7.56	70.1	8.3	86.3 ± 6.52	70.2	213 to 214	10.8
Nc1ccc2c(c1N)C(=O)c1ccccc1C2=O [1,2-diaminoanthraquinone, reference compound]	98.5 ± 11.7	77.3	18.2				
